Assays:
hCA I = biological target: T1, hCA I (Homo sapiens, UniProt P00915); assay: stopped flow CO2 hydrase assay, hCA I; format: biochemical; conditions: mean from three different assays
T1 construct: made in house
Experimental: (§1) An Applied Photophysics stopped-flow instrument was used to assay the CA catalysed CO2 hydration activity. […] The CO2 concentrations ranged from 1.7 to 17 mM for the determination of the kinetic parameters and inhibition constants. […] For each inhibitor, at least six traces of the initial 5–10% of the reaction were used to determine the initial velocity. The uncatalyzed rates were determined in the same manner and subtracted from the total observed rates. Stock solutions of the inhibitor (0.1 mM) were prepared in distilled–deionized water and dilutions up to 0.01 nM were done thereafter with the assay buffer. Inhibitor and enzyme solutions were preincubated together for 15 min at room temperature prior to the assay, to allow for the formation of the E–I complex. The inhibition constants were obtained by non-linear least-squares methods using PRISM 3 and the Cheng-Prusoff equation as reported earlier and represent the mean from at least three different determinations. All CA isoforms were recombinant proteins obtained in house, as reported earlier[14]^,[26–29].

hCA II = biological target: T2, hCA II (Homo sapiens, UniProt P00918); assay: stopped flow CO2 hydrase assay, hCA II; format: biochemical; conditions: mean from three different assays, read-out: Ki hCAII
T2 construct: made in house
Experimental: as §1

hCA IV = biological target: T3, hCA IV (Homo sapiens, UniProt P22748); assay: stopped flow CO2 hydrase assay, hCA IV; format: biochemical; conditions: mean from three different assays
T3 construct: made in house
Experimental: as §1

hCA IX = biological target: T4, hCA IX (Homo sapiens, UniProt Q16790); assay: stopped flow CO2 hydrase assay, hCA IX; format: biochemical; conditions: mean from three different assays
T4 construct: made in house
Experimental: as §1

LdCA = LdCA (Leishmania donovani, UniProt A0A3S5H5R2); assay: biochemical; conditions: stopped flow CO2 hydrase assay; mean from three different assays; read-out: Ki LdCA
Experimental: (§2) An Applied Photophysics stopped-flow instrument was used to assay the CA catalysed CO2 hydration activity. […] The uncatalyzed rates were determined in the same manner and subtracted from the total observed rates. Stock solutions of the inhibitor (0.1 mM) were prepared in distilled–deionized water and dilutions up to 0.01 nM were done thereafter with the assay buffer. Inhibitor and enzyme solutions were preincubated together for 15 min at room temperature prior to the assay, to allow for the formation of the E–I complex. The inhibition constants were obtained by non-linear least-squares methods using PRISM 3 and the Cheng-Prusoff equation as reported earlier and represent the mean from at least three different determinations. All CA isoforms were recombinant proteins obtained in house, as reported earlier[14]^,[26–29].

SmCA = SmCA (Schistosoma mansoni, UniProt A0A3Q0KSG2); assay: biochemical; conditions: stopped flow CO2 hydrase assay; mean from three different assays; read-out: Ki SmCA
Experimental: as §2

S. mansoni adult worms = assay: In vitro antischistosomal activity against adult S. mansoni worms; format: cell-based, Schistosoma mansoni; conditions: 10 μM, 72 h, viability via microscopy
Experimental: (§3) In vitro studies were carried out in accordance with Swiss national and cantonal regulations on animal welfare under the permission number 2070. The drug sensitivity assays with S. mansoni (adult and newly transformed schistosomules (NTS)) were carried out as described recently. Briefly, to obtain NTS, cercariae were collected from infected Biomphalaria glabrata snails and were mechanically transformed. Adult S. mansoni worms were collected by dissecting the mesenteric veins of infected mice at day 49 postinfection. Approximately 30–40 NTS were incubated with the respective test drug in 250 µL of M199 medium (Gibco, Waltham, MA) supplemented with 5% (v/v) foetal calf serum (FCS) (Bioconcept AG, Switzerland), 1% (v/v) penicillin/streptomycin solution (Sigma–Aldrich, Switzerland) and 1% (v/v) antibacterial/antifungal solution for up to 72 h at 37 °C and 5% CO2. The drug was tested at 10 µM in triplicate and repeated once. Three adult S. mansoni were incubated in a final volume of 2 mL rpmI 1640 supplemented with 5% (v/v) FCS and 1% (v/v) penicillin/streptomycin at 37 °C and 5% CO2 for 72 h at 10 µM. The experiment was conducted in duplicate. Worms were judged via microscopic readout 72 h after incubation; they were scored according to phenotypic reference points such as motility, morphology and granularity (scores from 0 to 3).

[1] = tested on: newly transformed schistosomula (NTS); assay: In vitro antischistosomal activity against newly transformed schistosomula (NTS); format: cell-based, Schistosoma mansoni; conditions: 10 μM, after 72 h of exposure, viability via microscopy
Experimental: as §3

Sequence of LdCA (A0A3S5H5R2 entry or part of it): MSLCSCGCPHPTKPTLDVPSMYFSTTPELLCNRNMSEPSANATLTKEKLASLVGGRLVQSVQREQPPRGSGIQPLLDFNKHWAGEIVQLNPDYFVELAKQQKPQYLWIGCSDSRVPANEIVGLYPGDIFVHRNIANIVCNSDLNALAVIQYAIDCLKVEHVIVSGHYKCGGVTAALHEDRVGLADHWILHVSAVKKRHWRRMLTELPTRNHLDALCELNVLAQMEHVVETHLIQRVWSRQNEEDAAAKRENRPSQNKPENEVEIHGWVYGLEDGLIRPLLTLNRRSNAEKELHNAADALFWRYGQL
T1 sequence (P00915 whole entry): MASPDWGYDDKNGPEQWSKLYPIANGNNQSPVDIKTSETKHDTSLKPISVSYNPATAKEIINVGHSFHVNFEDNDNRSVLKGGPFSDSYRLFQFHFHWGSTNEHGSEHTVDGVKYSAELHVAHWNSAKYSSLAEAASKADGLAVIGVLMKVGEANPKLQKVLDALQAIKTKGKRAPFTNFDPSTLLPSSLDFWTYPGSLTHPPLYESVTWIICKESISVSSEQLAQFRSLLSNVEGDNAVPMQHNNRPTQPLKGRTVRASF
Sequence of SmCA (A0A3Q0KSG2 entry or part of it): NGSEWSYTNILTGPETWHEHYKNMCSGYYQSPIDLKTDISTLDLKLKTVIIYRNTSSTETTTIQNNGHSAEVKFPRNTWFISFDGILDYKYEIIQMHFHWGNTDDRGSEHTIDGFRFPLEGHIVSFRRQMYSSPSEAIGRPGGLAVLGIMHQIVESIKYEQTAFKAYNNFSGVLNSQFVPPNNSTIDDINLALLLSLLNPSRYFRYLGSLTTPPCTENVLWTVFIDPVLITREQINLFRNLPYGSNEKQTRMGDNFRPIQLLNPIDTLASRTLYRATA
T3 sequence (P22748 19-312): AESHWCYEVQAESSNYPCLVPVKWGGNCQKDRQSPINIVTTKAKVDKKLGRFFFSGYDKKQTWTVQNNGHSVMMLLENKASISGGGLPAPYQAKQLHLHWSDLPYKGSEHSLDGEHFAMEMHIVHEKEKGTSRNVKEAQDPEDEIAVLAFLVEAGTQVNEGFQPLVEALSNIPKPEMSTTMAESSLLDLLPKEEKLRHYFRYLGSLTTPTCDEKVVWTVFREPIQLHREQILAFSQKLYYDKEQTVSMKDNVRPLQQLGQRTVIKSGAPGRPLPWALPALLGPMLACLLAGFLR

SMILES	Ki (hCA I)	Ki (hCA II)	Ki (hCA IV)	Ki (hCA IX)	Ki (LdCA)	Ki (SmCA)	activity against adult S. mansoni worms (S. mansoni adult worms)	activity against NTS [1]
NS(=O)(=O)c1ccc(CCC(=O)N2CC(=O)N3CCc4ccccc4C3C2)cc1 (stereo not shown) [Compound 4b, 4–(3-Oxo-3–(4-oxo-1,3,4,6,7,11b-hexahydro-2H-pyrazino[2,1-a]isoquinolin-2-yl)propyl) benzenesulfonamide]	67.7 ± 5.1 nM	17.5 ± 1 nM	785 ± 58.3 nM	139 ± 8 nM	417 ± 33.9 nM	93.6 ± 7 nM	20.9%	
NS(=O)(=O)c1ccc(NC(=O)N2CC(=O)N3CCc4ccccc4C3C2)cc1 (stereo not shown) [Compound 34a, 4-Oxo-N-(4-sulfamoylphenyl)-1,3,4,6,7,11b-hexahydro-2H-pyrazino[2,1-a]isoquinoline-2-carboxamide]	70.4 ± 5.7 nM	8.4 ± 0.8 nM	4410 ± 371 nM	24.7 ± 1.44 nM	253 ± 19.4 nM	59.6 ± 4.3 nM	30.6%	over 30%
NS(=O)(=O)c1ccc(CCNC(=O)N2CC(=O)N3CCc4ccccc4C3C2)cc1 (stereo not shown) [Compound 34c, 4-Oxo-N-(4-sulfamoylphenethyl)-1,3,4,6,7,11b-hexahydro-2H-pyrazino[2,1-a]isoquinoline-2-carboxamide]	20.5 ± 2 nM	5.8 ± 0.3 nM	4180 ± 442 nM	102 ± 5.9 nM	362 ± 27.3 nM	5.6 ± 0.5 nM		over 30%
